# In patent US9234018B2, “Compositions and methods for the treatment of VprBP-related cancers” (University of Southern California, priority 2013, dated 2016):
# Tests used:
# [1] = target: T1, VprBP (Homo sapiens, UniProt Q9Y4B6); experiment: In vitro kinase assay, VprBP (recombinant VprBP and H2A; kinase panel); format: biochemical; design: Inhibition of VprBP and H2AT120p in in vitro kinase assay (library screen): dose or concentration left out as unconfirmed
# T1 construct: His (N); made in house; host or cells: Sf9 insect cells (baculovirus)
# Method: Recombinant mononucleosomes and nucleosome arrays were reconstituted using recombinant histone octamers as recently described (Jaskelioff, M. et al. (2000) Mol. Cell. Biol. 20:3058-3068; Robinson, P. J. et al. (2008) J. Mol. Biol. 381:816-825). For kinase assays, recombinant VprBP was incubated with free histones ([…]) or reconstituted nucleosomes ([…]) in kinase buffer (50 mM Tris-HCl [pH 7.5], 20 mM EGTA, 10 mM MgCl2, 1 mM DTT, and 1 mM b-glycerophosphate) containing 10 mCi of [g-32P] ATP and 4 mM ATP for 30 min at 30_C. Proteins from each reaction were separated by SDS-PAGE, Coomassie blue stained, dried, and visualized by autoradiography. To create VprBP inhibitors, a collection of 5,000 compounds was screened in the same kinase assays at a final concentration […]. In vitro transcription assays were as described (Kim, K. et al. (2012) Mol. Cell. Biol. 32:783-796), except that G5ML-601 nucleosome arrays (100 ng) and Gal4-VP16 (15 ng) were used for the reactions. Recombinant VprBP (25 or 50 ng) and ATP (10 mM) were added before p300 (20 ng) and AcCoA (10 mM).
# [2] = test system: DU145 tumor xenografts; experiment: DU145 tumor xenografts in nude mice; format: in vivo
# Method: All animal experiments were performed according to protocols approved by the Institutional Animal Care and Use Committee. Tumor xenografts were established by subcutaneous injection of 1 3 107 DU145 cells into 8-weekold female nude mice (n=8). At day 5 after injection, the mice bearing DU145 tumor xenografts were treated with twice-weekly i.p. injections of either DMSO or B32B3 at a dose of 5 mg/kg throughout the duration of the experiment. Tumor dimension was measured by calipers twice a week, and tumor mass was calculated as described (Heo, K. et al. (2012) Oncogene 32:2510-2520). The mice were killed by asphyxiation with CO2, and tumors were excised and weighed 25 day after the cell injection. To analyze the H2AT120p, formalin-fixed and paraffin-embedded sections ([…]) from DU145 tumor xenografts were subject to immunohistochemistry. Animal studies were conducted under approved institutional protocols.
# [3] = target: AKT3 (Homo sapiens, UniProt Q9Y243); experiment: Kinase selectivity panel; format: biochemical
# [4] = test system: H2AT120p and VprBP at target genes in DU145 cells; experiment: Chromatin immunoprecipitation (ChIP) at VprBP target genes; format: cell-based, human; conditions: B32B3 1 mM
# Method: Mock-depleted or VprBP-depleted DU145 cells were grown to 70-80% confluence, cross-linked with 1% formaldehyde for 10 min, and processed for ChIP as recently described (Kim, K. et al. (2012) Mol. Cell Biol. 32:783-796). […] All samples were run in triplicate and results were averaged. Sequences of the primers used for quantitative real time PCR (qPCR) are as follows: […]
# [5] = target: VRK2 (Homo sapiens, UniProt Q86Y07); experiment: Kinase selectivity panel; format: biochemical
# [6] = target: ATR (Homo sapiens, UniProt Q13535); experiment: Kinase selectivity panel; format: biochemical
# T1 sequence (Q9Y4B6 whole entry): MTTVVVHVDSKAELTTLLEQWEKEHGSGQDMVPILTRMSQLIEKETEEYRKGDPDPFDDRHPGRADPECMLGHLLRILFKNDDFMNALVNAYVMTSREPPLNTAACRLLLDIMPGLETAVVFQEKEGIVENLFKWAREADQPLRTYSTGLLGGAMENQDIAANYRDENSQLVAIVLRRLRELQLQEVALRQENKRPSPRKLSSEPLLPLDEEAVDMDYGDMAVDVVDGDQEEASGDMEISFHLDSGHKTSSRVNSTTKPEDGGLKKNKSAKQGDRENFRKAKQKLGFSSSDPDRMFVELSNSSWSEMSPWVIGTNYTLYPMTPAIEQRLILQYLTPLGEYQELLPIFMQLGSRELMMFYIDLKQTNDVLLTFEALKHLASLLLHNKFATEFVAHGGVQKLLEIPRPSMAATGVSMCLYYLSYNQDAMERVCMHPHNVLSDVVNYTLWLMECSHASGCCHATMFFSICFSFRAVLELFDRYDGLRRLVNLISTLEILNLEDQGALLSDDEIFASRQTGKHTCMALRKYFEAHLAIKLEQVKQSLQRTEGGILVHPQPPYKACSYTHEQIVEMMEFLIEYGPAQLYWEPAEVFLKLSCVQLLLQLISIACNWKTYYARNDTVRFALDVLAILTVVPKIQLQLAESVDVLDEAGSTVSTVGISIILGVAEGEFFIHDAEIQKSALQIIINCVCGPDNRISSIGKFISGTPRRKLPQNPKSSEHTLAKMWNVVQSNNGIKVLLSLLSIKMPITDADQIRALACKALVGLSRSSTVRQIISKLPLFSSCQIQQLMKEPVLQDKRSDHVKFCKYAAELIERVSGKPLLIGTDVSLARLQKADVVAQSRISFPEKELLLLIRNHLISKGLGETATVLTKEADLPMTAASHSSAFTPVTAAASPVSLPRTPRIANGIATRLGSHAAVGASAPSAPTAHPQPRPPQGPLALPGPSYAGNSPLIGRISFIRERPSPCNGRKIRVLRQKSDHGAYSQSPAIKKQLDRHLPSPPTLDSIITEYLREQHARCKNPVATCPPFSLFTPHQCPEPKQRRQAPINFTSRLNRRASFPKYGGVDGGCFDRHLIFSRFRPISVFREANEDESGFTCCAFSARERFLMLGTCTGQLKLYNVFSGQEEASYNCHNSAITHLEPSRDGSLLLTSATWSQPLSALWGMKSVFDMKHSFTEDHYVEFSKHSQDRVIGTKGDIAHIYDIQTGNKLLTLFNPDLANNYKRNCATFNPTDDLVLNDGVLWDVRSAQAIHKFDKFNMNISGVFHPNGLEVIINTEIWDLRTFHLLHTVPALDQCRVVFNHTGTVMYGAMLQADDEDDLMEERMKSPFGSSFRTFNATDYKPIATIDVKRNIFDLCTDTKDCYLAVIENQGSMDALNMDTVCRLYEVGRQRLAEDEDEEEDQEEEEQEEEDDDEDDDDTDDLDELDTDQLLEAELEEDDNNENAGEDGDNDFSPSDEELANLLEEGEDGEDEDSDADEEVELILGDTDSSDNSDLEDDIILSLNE
# Sequence of AKT3 (Q9Y243 whole entry): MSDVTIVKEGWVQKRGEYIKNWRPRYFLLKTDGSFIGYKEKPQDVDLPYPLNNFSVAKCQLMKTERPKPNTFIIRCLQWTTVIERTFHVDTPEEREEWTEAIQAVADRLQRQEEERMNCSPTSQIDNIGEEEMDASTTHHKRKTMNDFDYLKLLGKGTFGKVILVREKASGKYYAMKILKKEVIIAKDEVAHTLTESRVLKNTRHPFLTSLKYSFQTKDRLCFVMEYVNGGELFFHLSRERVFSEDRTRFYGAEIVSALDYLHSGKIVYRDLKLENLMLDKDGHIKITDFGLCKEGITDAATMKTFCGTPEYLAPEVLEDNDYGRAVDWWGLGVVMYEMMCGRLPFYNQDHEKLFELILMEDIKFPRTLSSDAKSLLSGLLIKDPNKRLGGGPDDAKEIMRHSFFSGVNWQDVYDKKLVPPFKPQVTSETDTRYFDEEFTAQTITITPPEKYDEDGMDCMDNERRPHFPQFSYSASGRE
# Sequence of VRK2 (Q86Y07 whole entry): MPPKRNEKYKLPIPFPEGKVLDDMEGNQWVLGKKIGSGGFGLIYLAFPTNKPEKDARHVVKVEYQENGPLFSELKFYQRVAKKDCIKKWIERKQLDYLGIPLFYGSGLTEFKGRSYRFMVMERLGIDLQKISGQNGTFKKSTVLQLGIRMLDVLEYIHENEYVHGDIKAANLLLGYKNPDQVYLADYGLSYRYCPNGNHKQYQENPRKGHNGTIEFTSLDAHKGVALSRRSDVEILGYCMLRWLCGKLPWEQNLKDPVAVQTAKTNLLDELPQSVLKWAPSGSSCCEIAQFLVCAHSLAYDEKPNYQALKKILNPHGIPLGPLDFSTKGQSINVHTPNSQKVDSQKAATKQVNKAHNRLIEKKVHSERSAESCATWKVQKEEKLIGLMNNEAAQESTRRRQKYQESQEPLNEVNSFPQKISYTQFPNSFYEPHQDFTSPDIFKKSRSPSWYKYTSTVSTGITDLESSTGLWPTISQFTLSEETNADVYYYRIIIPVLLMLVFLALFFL
compound,measurement,setting,value
c1ccc2c(CNNc3ncnc4sc5c(c34)CCCC5)c[nH]c2c1 [B32B3],Selectivity for VprBP over 33 other kinases,[1]; panel of 33 human kinases,greater than 100 fold
same,IC50,"[1]; panel of 33 human kinases, read-out: IC50 for VprBP as stated in text",600 nM
same,Inhibition of VprBP and H2AT120p in in vitro kinase assay (library screen),"[1]; recombinant H2A and VprBP, western blotting with H2AT120p antibody",inhibited VprBP and decreased H2AT120p
same,Tumor growth inhibition,"[2]; 5 mg/kg i.p. twice a week over 3 weeks, calculated the day after the last treatment",70%-75%
same,Body weight loss during treatment,[2]; 5 mg/kg i.p. twice weekly,did not cause any significant weight loss
same,Tolerability in mice,[2]; 5 mg/kg i.p. twice weekly,well tolerated
same,Levels of H2AT120p in xenograft tumors (immunohistochemistry),[2]; compared to DMSO-treated controls,greatly decreased
same,IC50,[3],> 10 µM
same,Reduction of H2AT120p at promoter and coding regions of target genes,[4],70%
same,VprBP levels at promoter and coding regions of target genes,[4],did not alter
same,IC50,[5],> 10 µM
same,IC50,[6],> 10 µM
